{
  "source": "patent US12173320B2",
  "about": "“Production of red blood cells and platelets from stem cells” (BOSTON MEDICAL CENTER CORPORATION, priority 2012, dated 2024)",
  "type_in_all_cases": "cell-based, human",
  "key": {"[1]": {"system": "AhR (CYP1B1 target gene expression) in iPSCs", "assay": "Quantitative RT-PCR of AhR target gene CYP1B1 in iPSCs", "experimental": "RNA was extracted using the RNeasy kit (Qiagen) according to the manufacturer's instructions and DNase treated using the DNA-free kit (Ambion AM1906). Reverse transcription into cDNA was performed using the High Capacity cDNA Reverse Transcription Kit (Applied Biosystems 4368814). Quantitative (real time) PCR amplification of cDNA was performed using Taqman probes for AHR (Hs00169233 ml), CYP1B1 (Hs002382916 sl), HBA (Hs00361191 gl), HBB (Hs00758889 sl), HBG (Hs01629437 sl), vWF (Hs00169795 ml), PF4 (Hs00427220 gl), NF-E2 (Hs00232351 ml) and CD62P (Hs00927900 ml) and run on the Applied Biosystems StepOne machine. […]\nTo characterize AhR expression and functionality in both undifferentiated iPSCs and directly differentiated MEPs, AhR protein levels were determined via Western blot in these populations. AhR receptor was robustly expressed in day 30 and day 60 MEPs (FIG. 4A). However, AhR protein was not detected by western blotting in iPSC populations, and we postulated that AhR was expressed at extremely low levels in iPSCs, i.e., below the level of detectability with the antibodies used for Western blots. To test this hypothesis, the ability of FICZ to induce a prototypic AhR-target gene, CYPIB1, in iPSCs or, as a positive control, MEPs was assessed by quantitative RT-PCR."}, "iPSC-derived MEPs [2]": {"system": "iPSC-derived MEPs", "assay": "Immunophenotyping of MEP lineage specification (CD235, CD71, CD41 FACS)", "details": "day 30 MEPs, basal cytokine conditions, versus vehicle", "experimental": "(§1) Roughly 10^5 cells were collected, spun, and re-suspended in 0.5% BSA in PBS. Samples were incubated for 30 min at ambient temperature with human antibodies including CD41a-FITC (BD 555466), CD235-PE (BD 555570), CD71-FITC (BD 555536), washed and spun at 3300 rpm for 7 min, and re-suspended in 0.5% BSA in PBS with 1 ug/ml Propidium Iodide. Samples were run on a BD FACScalibur using Cellquest Pro software and analyzed via FloJo 8.7. For ploidy analysis, cells were treated with 1.5% NP-40 (Boston Bioproducts P-872) and 62.5 ug/ml Propidium Iodide in PBS immediately before FACScalibur interrogation. For murine bone marrow, samples were first incubated for 5 min at ambient temperature with murine conjugated antibody CD16/32 (BD 553142) before a 30 min incubation with c-Kit-PE (BD 553355), CD41a-FITC (BD 553848), Ter119-PE (BD 553673). For cell viability assays, 2-3×10 ^5 cells were collected, re-suspended in 8.8 ug/ml Hoecsht 33342 in PBS supplemented with 5% FBS. Samples were then incubated in the dark at 37° C. for 15 min, washed, and re-suspended in 1 ug/ml Propidium Iodide in 5% FBS. Samples were run on an LSR-II machine with FACSDiva software and analyzed via FloJo 8.7.\nIn our previous studies in which we noted exponential expansion of iPSC-derived MEPs (FIG. 3), the AhR-mediated effect that we noted allowed us to culture cells for extended periods of time (>120 days). […]"}, "iPSC-derived MEPs [3]": {"system": "iPSC-derived MEPs", "assay": "Live versus dead cell FACS (propidium iodide vs. Hoechst) of MEPs", "details": "pre-treated for 24 hours with 5 μM CH223191 before FICZ", "experimental": "(§2) 6-formylindolo[3,2-b]carbazole (FICZ), an AHR small molecule agonist, and CH223191, an AHR competitive inhibitor were used for these assays. CH223191 was added to mesoderm cultures at Day 6 at 5 μM (lx) and 2.504 (0.5×). 0.2 μM FICZ was added to cultures at Day 7 and media was added daily. DMSO was used as a vehicle control.\nas §1\nIn order to determine whether FICZ-mediated transactivation of the AhR receptor was responsible for the exponential expansion of iPSC-derived MEPs, the previously described Hoecsht/Propidium Iodide apoptosis assay was performed using the known AhR inhibitor CH223191. As previously shown in FIG. 3, fewer cells stained with propidium iodide after FICZ treatment (e.g., 15.5% vs. 8.09%) (FIG. 5E). […] The efficacy of the CH223191 was confirmed by its ability to block CY1^31B1 induction as assayed by qRT-PCR (FIG. 5F)."}, "iPSC-derived MEPs [4]": {"system": "iPSC-derived MEPs", "assay": "Growth / expansion of MEP cultures (manual counts, trypan blue exclusion)", "experimental": "Plots were gated first in FSC vs. SSC and then from that population for PI ‘ and PE Hoechst’. […] (B) Representative phase contrast images of MEP population+FICZ. (C) Growth curve of day 15 MEPs+/−[…] FICZ. Cells were counted manually using trypan blue exclusion. Graphical data and the associated statistics are the result of three independent experiments per group.\nHigh passage iPSCs were plated onto matrigel coated 6-well plates in iPSC media conditioned on iMEFs for 24 hours and supplemented with 2 ng/ml Rho Kinase Inhibitor and 20 ng/ml bFGF. After two days, iPSC media was replaced with Mesoderm DO-1 media: RPMI (Invitrogen A1049101) supplemented with 5 ng/mlhBMP-4 (R&D 314-BP-010), 50 ng/ml hVEGF (R&D 293-VE-010), 25 ng/mlhWnt3a (R&D 287-TC-500) and 10% KOSR. At Day 2, Mesoderm DO-1 media was replaced with Mesoderm D2 media: RPMI supplemented with 5 ng/ml hBMP-4, 50 ng/mlhVEGF, 20 ng/ml bFGF and 10% KOSR. Mesoderm D3 media consisted of the following: StemPro 34 (Invitrogen 10639011), 5 ng/ml hBMP-4, 50 ng/mlhVEGF, and 20 ng/ml bFGF. Mesoderm media for days 4 and 5 consisted of: StemPro 34, 15 ng/mlhVEGF, and 5 ng/ml bFGF. Day 6 mesoderm media: 74% IMDM (Invitrogen 12330061), 24% Hams F12 (Mediatech 10-080-CV), 1% B27 supplement (Invitrogen 12587-010), 0.5% N2-supplement (Invitrogen 17502-048), 0.5% BSA (Sigma A3059), 50 ng/ml hVEGF, 100 ng/mlbFGF, 100 ng/ml hSCF (R&D 255-SC-010), 25 ng/ml hFlt3 Ligand (R&D 308-FKN-005). Day 7 media: 74% IMDM, 24% Hams F12, 1% B27 supplement, 0.5% N2-supplement, 0.5% BSA, 50 ng/ml hVEGF, 100 ng/ml bFGF, 100 ng/ml hSCF, 25 ng/ml hFlt3 Ligand, 50 ng/ml hTPO (Genentech G140BT), 10 ng/ml IL-6 (R&D 206-IL-010), 0.5 U/ml hEPOgen and 0.2 uM 6-formylindolo[3,2-b]carbazole (FICZ) (Santa Cruz SC300019). After Day 7, 0.5 ml of Day 7 media was added to the culture daily without aspirating the media from the previous day. All base media mixes included 2 mM L-Glutamine (Invitrogen 25030081), 4×10^-4M Monothioglycerol (Sigma M1753), 100 ug/ml Primocin, and 50 ug/ml Ascorbic Acid. Cells in suspension were collected and assayed at Days 10-13 or split for long-term culture.\nas §2"}, "AhR": {"system": "AhR", "assay": "Lentiviral AhR reporter (MMTV-DRE dsRed / luciferase) in MEPs", "details": "day 30 MEPs, 0.2 μM FICZ plus 5 μM CH223191"}, "[5]": {"system": "AhR (CYP1B1 target gene expression) in MEPs", "assay": "Quantitative RT-PCR of AhR target gene CYP1B1 in MEPs", "experimental": "as §2\nRNA was extracted using the RNeasy kit (Qiagen) according to the manufacturer's instructions and DNase treated using the DNA-free kit (Ambion AM1906). Reverse transcription into cDNA was performed using the High Capacity cDNA Reverse Transcription Kit (Applied Biosystems 4368814). Quantitative (real time) PCR amplification of cDNA was performed using Taqman probes for AHR (Hs00169233 ml), CYP1B1 (Hs002382916 sl), HBA (Hs00361191 gl), HBB (Hs00758889 sl), HBG (Hs01629437 sl), vWF (Hs00169795 ml), PF4 (Hs00427220 gl), NF-E2 (Hs00232351 ml) and CD62P (Hs00927900 ml) and run on the Applied Biosystems StepOne machine. Relative gene expression was normalized to B-actin (Hs99999903 ml).\nTo characterize AhR expression and functionality in both undifferentiated iPSCs and directly differentiated MEPs, AhR protein levels were determined via Western blot in these populations. […] To test this hypothesis, the ability of FICZ to induce a prototypic AhR-target gene, CYPIB1, in iPSCs or, as a positive control, MEPs was assessed by quantitative RT-PCR."}},
  "note": "Where two headings read alike, the source gives them in different places.",
  "data": [
    {"smiles": "Clc1cc2c(cc1Cl)Oc1cc(Cl)c(Cl)cc1O2", "note": "[TCDD, 2,3,7,8-tetrachlorodibenzo(p)dioxin]", "values": [
      {"measurement": "responsiveness to AhR agonist (CYP1B1 RT-PCR)", "setting": "[1]; iPSC treated for 4 days, normalized to GAPDH", "result": "responsive"}
    ]},
    {"smiles": "Cc1ccccc1N=Nc1ccc(NC(=O)c2ccnn2C)c(C)c1", "note": "[CH223191, 2-methyl-2H-pyrazole-3-carboxylic acid (2-methyl-4-o-tolylazo-phenyl)-amide]", "values": [
      {"measurement": "CD41+ megakaryocyte-lineage cells", "setting": "iPSC-derived MEPs [2]", "result": "small but defined population"},
      {"measurement": "percentage of PI+ cells, vehicle versus FICZ-treated cultures", "setting": "iPSC-derived MEPs [3]", "result": "approximately the same"},
      {"measurement": "expansion of MEPs", "setting": "iPSC-derived MEPs [4]; 2.5 μM CH223191 pre-treatment before addition of FICZ", "result": "still capable of expansion"},
      {"measurement": "expansion of MEPs", "setting": "iPSC-derived MEPs [4]; 5 μM CH223191 pre-treatment + FICZ", "result": "No significant expansion"},
      {"measurement": "DsRed reporter expression", "setting": "AhR", "result": "significant decrease"},
      {"measurement": "CYP1B1 induction by FICZ", "setting": "[5]; MEPs pretreated with CH223191 at D6, FICZ at D7", "result": "block"}
    ]},
    {"smiles": "O=c1cc(-c2ccccc2)oc2ccc3ccccc3c12", "note": "[(3-NF, P-naphtoflavone]", "values": [
      {"measurement": "responsiveness to AhR agonist (CYP1B1 RT-PCR)", "setting": "[1]", "result": "responsive"},
      {"measurement": "responsiveness to AhR agonist (CYP1B1 RT-PCR)", "setting": "[5]; MEP, normalized to GAPDH", "result": "responsive"}
    ]}
  ]
}
